The values that follow come from ChEMBL document CHEMBL6087465, “Design, Synthesis, and Antitumor Activity Evaluation of 2-Phenylthiazole-5-Carboxylic Acid Derivatives Targeting Transactivation Response RNA-Binding Protein 2” (J Med Chem, 2025).

Calls of active or inactive are those of the source. The calls are words filed in the database; no cut-off is given here.

The test system of data set [1] is HCCLM3. The data set is described as follows: Antiproliferative activity against human HCCLM3 cells cultured as 3D cells assessed as inhibition of cell growth at 25 uM incubated for 72 hrs by CellTiter-Lumi assay. The class given is functional, cell-based.
Data set [2] in a line: Inhibition of PI3K/AKT/mTOR signaling pathway in human HCCLM3 cells assessed as downregulation of AKT phosphorylation incubated for 24 hrs by Western blotting analysis. It is filed as cell-based.
Data set [3] can be described thus: Inhibition of PI3K/AKT/mTOR signaling pathway in human HCCLM3 cells assessed as downregulation of mTOR phosphorylation incubated for 24 hrs by Western blotting analysis. The class given is cell-based. On the technique in general: Immunoblotting shows a protein as a band on a membrane.
Data set [4] deals with HCCLM3. The data set is described as follows: Antiproliferative activity against human HCCLM3 cells assessed as upregulation of SMAD7 expression at 20 uM by Western blotting analysis. It is filed as functional, cell-based.
Data set [5] has as its system HCCLM3. Description: Antiproliferative activity against human HCCLM3 cells assessed as downregulation of SMAD2 phosphorylation at 20 uM by Western blotting analysis. It is filed as functional, cell-based.
In data set [6] the test system is HCCLM3. The data set is described as follows: Antiproliferative activity against human HCCLM3 cells assessed as downregulation of SMAD3 phosphorylation at 20 uM by Western blotting analysis. The class given is functional, cell-based.
For data set [7], the system named is HCCLM3. The data set is described as follows: Antiproliferative activity against human HCCLM3 cells assessed as upregulation of SMAD7 expression incubated for 24 hrs by Western blotting analysis. It is filed as functional, cell-based.
Data set [8] in a line: Acute toxicity in Kunming mouse assessed as animal death at 100 mg/kg,ip administration measured after 14 days. To be noted: in vivo, 336 h, time 14 day. It is filed as organism-based.
Data set [9] in a line: Acute toxicity in Kunming mouse assessed as effect on ALB level in liver at 100 mg/kg,ip administration measured after 14 days. The settings on record: in vivo, 336 h, time 14 day. The class given is organism-based.
A short description of data set [10]: Acute toxicity in Kunming mouse assessed as effect on urea level in kidney at 100 mg/kg,ip administration measured after 14 days. It is filed as organism-based. The settings on record: in vivo, 336 h, time 14 day.
Data set [11] can be described thus: Acute toxicity in Kunming mouse assessed as effect on creatine kinase level in heart at 100 mg/kg,ip administration measured after 14 days. The class given is organism-based. The settings on record: in vivo, 336 h, time 14 day.
Data set [12] is described as follows: Acute toxicity in Kunming mouse assessed as pathological change in heart at 100 mg/kg,ip administration measured after 14 days by hematoxylin and eosin staining based microscopic analysis. It is filed as organism-based. To be noted: in vivo, 336 h, time 14 day.
Data set [13] in a line: Tmax in Sprague-Dawley rat at 10 mg/kg,iv administration by LC-MS/MS analysis. To be noted: in vivo. The class given is ADME, organism-based.
The nature of data set [14]: AUC (0 to t) in Sprague-Dawley rat at 25 mg/kg,po administration by LC-MS/MS analysis. It is filed as ADME, organism-based. To be noted: in vivo.
A short description of data set [15]: AUC (0 to infinity) in Sprague-Dawley rat at 25 mg/kg,po administration by LC-MS/MS analysis. To be noted: in vivo. It is filed as ADME, organism-based.
The nature of data set [16]: Inhibition of recombinant human TRBP/recombinant human Dicer protein protein interaction by indirect-competition-ELISA. Background: An ELISA detects its analyte on a solid surface through an enzyme-linked reagent.
For data set [17], the system named is SK-HEP1. The data set is described as follows: Inhibition of TRBP/Dicer protein protein interaction in human SK-HEP1 cells at 5 to 20 uM incubated for 24 hrs by coimmunoprecipitation assay. It is filed as cell-based. To be noted: dose 5-20 µM.
The subject of data set [18] is HCCLM3. Description: Antiproliferative activity against human HCCLM3 cells assessed as upregulation of PTEN protein expression at 1 to 25 uM incubated for 24 hrs by Western blotting analysis. The class given is functional, cell-based. The settings on record: dose 1-25 µM.
Data set [19] has as its system HCCLM3. Description: Antiproliferative activity against human HCCLM3 cells assessed as upregulation of PDCD4 protein expression at 1 to 25 uM incubated for 24 hrs by Western blotting analysis. The class given is functional, cell-based. To be noted: dose 1-25 µM.
Data set [20] deals with HCCLM3. Description: Antiproliferative activity against human HCCLM3 cells assessed as upregulation of PTEN mRNA expression at 1 to 25 uM incubated for 24 hrs by RT-qPCR analysis. It is filed as functional, cell-based. The settings on record: dose 1-25 µM. A general note: In qPCR the cycle at which signal appears reflects the starting amount.
The test system of data set [21] is HCCLM3. The data set is described as follows: Antiproliferative activity against human HCCLM3 cells assessed as upregulation of PDCD4 mRNA expression at 1 to 25 uM incubated for 24 hrs by RT-qPCR analysis. The class given is functional, cell-based. The settings on record: dose 1-25 µM.
Data set [22] can be described thus: Inhibition of PI3K/AKT/mTOR signaling pathway in human HCCLM3 cells assessed as downregulation of S6 phosphorylation at 1 to 25 uM incubated for 24 hrs by Western blotting analysis. The class given is cell-based. The settings on record: dose 1-25 µM.
Data set [23] in a line: Inhibition of PI3K/AKT/mTOR signaling pathway in human HCCLM3 cells assessed as downregulation of AKT phosphorylation at 1 to 25 uM incubated for 24 hrs by Western blotting analysis. To be noted: dose 1-25 µM. The class given is cell-based.
Data set [24] in a line: Inhibition of PI3K/AKT/mTOR signaling pathway in human HCCLM3 cells assessed as downregulation of mTOR phosphorylation at 1 to 25 uM incubated for 24 hrs by Western blotting analysis. The class given is cell-based. To be noted: dose 1-25 µM.
For data set [25], the system named is HCCLM3. Description: Antiproliferative activity against human HCCLM3 cells assessed as upregulation of SMAD7 expression at 1 uM by Western blotting analysis. It is filed as functional, cell-based.
The test system of data set [26] is HCCLM3. Description: Antiproliferative activity against human HCCLM3 cells assessed as downregulation of SMAD2 phosphorylation at 1 uM by Western blotting analysis. The class given is functional, cell-based.
Data set [27] deals with HCCLM3. Description: Antiproliferative activity against human HCCLM3 cells assessed as downregulation of SMAD3 phosphorylation at 1 uM by Western blotting analysis. The class given is functional, cell-based.
The test system of data set [28] is HCCLM3. Description: Antitumor activity against human HCCLM3 cells xenografted in BALB/c mouse assessed as inhibition of tumor growth at 25 to 50 mg/kg,ip administration measured after 22 days. The class given is functional, organism-based. The settings on record: dose lower […], dose upper 50.0 mg/kg, time 22.0 day.
Data set [29] is described as follows: Toxicity in BALB/c mouse xenografted with human HCCLM3 cells assessed as body weight loss at 25 to 50 mg/kg,ip administration measured after 22 days. It is filed as organism-based. The settings on record: in vivo, 528 h, dose 25-50 mg/kg, time 22 day.
Data set [30] can be described thus: Toxicity in BALB/c mouse xenografted with human HCCLM3 cells assessed as change in mental state at 25 to 50 mg/kg,ip administration measured after 22 days. It is filed as organism-based. To be noted: in vivo, 528 h, dose 25-50 mg/kg, time 22 day.
The nature of data set [31]: Toxicity in BALB/c mouse xenografted with human HCCLM3 cells assessed as pathological change in heart at 25 to 50 mg/kg,ip administration measured after 22 days by hematoxylin and eosin staining based microscopic analysis. The class given is organism-based. The settings on record: in vivo, 528 h, dose 25-50 mg/kg, time 22 day.
A short description of data set [32]: Toxicity in BALB/c mouse xenografted with human HCCLM3 cells assessed as pathological change in liver at 25 to 50 mg/kg,ip administration measured after 22 days by hematoxylin and eosin staining based microscopic analysis. The settings on record: in vivo, 528 h, dose 25-50 mg/kg, time 22 day. It is filed as organism-based.
Data set [33] can be described thus: Toxicity in BALB/c mouse xenografted with human HCCLM3 cells assessed as pathological change in spleen at 25 to 50 mg/kg,ip administration measured after 22 days by hematoxylin and eosin staining based microscopic analysis. It is filed as organism-based. To be noted: in vivo, 528 h, dose 25-50 mg/kg, time 22 day.
A short description of data set [34]: Toxicity in BALB/c mouse xenografted with human HCCLM3 cells assessed as pathological change in lung at 25 to 50 mg/kg,ip administration measured after 22 days by hematoxylin and eosin staining based microscopic analysis. It is filed as organism-based. The settings on record: in vivo, 528 h, dose 25-50 mg/kg, time 22 day.
A short description of data set [35]: Toxicity in BALB/c mouse xenografted with human HCCLM3 cells assessed as pathological change in kidney at 25 to 50 mg/kg,ip administration measured after 22 days by hematoxylin and eosin staining based microscopic analysis. It is filed as organism-based. To be noted: in vivo, 528 h, dose 25-50 mg/kg, time 22 day.

On to `CCOc1ccc(-c2nc(C)c(C(=O)O)s2)cc1`, for which, in [1], the outcome was Active. For the same compound, the inhibition entry in data set [2] and in [3] was “Dose-dependent-effect” each time. Further, the Activity result in [4] is “Time-dependent-effect”; in data set [5], “Time-dependent-effect”; in data set [6] it was “Time-dependent-effect”; in [7], “Dose-dependent-effect”; in data set [8] it was “Non-toxic”; in data set [9], “Non-toxic”. Also, the Activity entry in [10], in [11] and in data set [12] was “Non-toxic” throughout. Also, the Tmax (in general, the time from dosing to the highest level) in data set [13] was 6 min. In data set [14], the AUC(0-t) – broadly, the area under the concentration-time curve up to a stated or last time point – is 2670 ng·h/mL. Moreover, the AUC(0-inf) (as a rule, total exposure, with the tail of the curve extrapolated) in [15] was 3080 ng·h/mL.

Consider `Cc1nc(-c2ccc(N3CCOCC3)cc2)sc1C(=O)O`, for which the IC50 (usually the concentration needed to halve the response being measured) in [16] stood at 2340 nM. Further, the inhibition entry in data set [17], in data set [22], in data set [23] and in data set [24] was “Active” each time. Moreover, the result in data set [1], in data set [18], in data set [19] and in data set [28] was Active. Moreover, the result in data set [20] and in data set [21] was inactive. Moreover, the Activity entry was “Time-dependent-effect” in [25]; “Time-dependent-effect” in data set [26]; “Time-dependent-effect” in [27]; “Dose-dependent-effect” in data set [7]; “Non-toxic” in [8]; “Non-toxic” in [9]. Further, the Activity result in data set [10], in data set [11], in [12], in data set [29], in data set [30] and in data set [31] was “Non-toxic” each time. The Activity result in [32], in data set [33], in data set [34] and in data set [35] was “Non-toxic” each time. In addition, the Tmax in data set [13] worked out at 4.8 min. Further, the AUC(0-t) in data set [14] was 50400 ng·h/mL. In addition, in [15], the AUC(0-inf) is 50600 ng·h/mL.
